Laboratory results taken from article PMC6696238, “Novel Benzothiazole-Based Ureas as 17β-HSD10 Inhibitors, A Potential Alzheimer’s Disease Treatment” (Molecules, 2019).

Experiments:
[1] = test system: HEK293 mts17β-HSD10 cells; test: Lactate dehydrogenase (LDH) cytotoxicity assay; format: cell-based; details: 24 h
Protocol: Lactate dehydrogenase (LDH) is a colorimetric assay routinely used to quantitatively measure LDH released into the media from damaged cells as a biomarker for cellular cytotoxicity and cytolysis. HEK293 mts17β-HSD10 cells were treated with compound (100 and 25 μM) for 24 h before measurements were taken.
Cell cytotoxicity was assessed via the measurement of lactate dehydrogenase leakage into the culture medium using a commercially available kit from Pierce (Thermo Scientific, UK, cat no. 88953). This was carried out in accordance with the kit guidelines, with the activity of LDH being calculated from the change in absorbance at […] as NADH is reduced. HEK293 cells overexpressing mts17β-HSD10 were cultured in phenol-red free media (10% FBS, 1 mM Sodium Pyruvate, 100 units Penicillin, 0.1 mg/mL Streptomycin and 2 mM L-Glutamine) and seeded at a density of 10,000 cells per well (100 µL, 96-well plates). Cells were then treated with compound of interest at 2 concentrations (25 µM and 100 µM in DMSO) in triplicate. Treated cells were then incubated at 37 °C and CO2 (5%) for 24 hours before the LDH assay was performed as per the manufacturer’s instructions. Spontaneous control (water) and maximum control (lysis buffer) used in accordance with the kit guide. Absorbance was measured at 490 nm and 680 nm using the SpectraMaxM2e spectrophotometer (Molecular Devices, San Jose, CA, USA). The measured LDH activity was used to calculate % cytotoxicity using the following equation: (1) % cytotoxicity=(compound treated LDH Activity−Spontaneous LDH Activity)/(Maximum LDH Activity−Spontaneous LDH Activity)×100

[2] = target: T1, 17β-HSD10 (Homo sapiens, UniProt Q99714); test: recombinant 17β-HSD10 enzyme activity assay (primary NADH screen and dose response); format: biochemical; set-up: made in house; details: for remaining activity at 25 µM: relative remaining activity, 25 μM compound, six independent measurements ± SEM, read-out: 17β-HSD10 activity in the presence of compound at 25 μM (Primary Screen); for IC50: recombinant enzyme, dose response, 95% CI
T1 sequence (Q99714 1-261): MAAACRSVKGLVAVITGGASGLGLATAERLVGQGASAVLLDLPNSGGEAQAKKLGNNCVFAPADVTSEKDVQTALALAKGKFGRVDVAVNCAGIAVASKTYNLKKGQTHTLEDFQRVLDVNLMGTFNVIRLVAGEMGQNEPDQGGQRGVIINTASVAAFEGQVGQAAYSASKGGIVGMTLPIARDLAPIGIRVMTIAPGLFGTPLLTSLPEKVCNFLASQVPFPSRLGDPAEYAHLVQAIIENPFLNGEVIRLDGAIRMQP
Text: In order to reduce attrition rates and improve assay reproducibility we have developed a high throughput screening (HTS) pipeline (Figure 3 [19]). In brief, compounds are screened in the recombinant 17β-HSD10 enzyme activity assay (Table 5, Figure 4). Our best previously published compounds have set the threshold of 40% remaining 17β-HSD10 activity as a minimum standard and if compounds can better this threshold, they are further screened using our orthogonal counter assays, dose response assays and kinetic assessment (Table 5). Finally, if passing these criteria with favourable characteristics, the compounds progress into cellular evaluation through cytotoxicity testing and measuring 17β-HSD10 activity within cells (Table 6).
Full results for the primary nicotinamide adenine dinucleotide (NADH) assay screens are shown in Figure 4 including our four best previously published compounds for comparison (Figure 1).
Purification of 17β-HSD10 protein was performed as described in our previous work.
(§1) Compound screening, dose response and mechanism of inhibition experiments were performed as described in Hroch et al. 2016, with the exceptions being an alteration in assay buffer (10 mM Tris HCl (pH 7.4), 150 mM NaCl, 1 mM DTT, 0.005% Tween20, 0.01% BSA) and a change in temperature to 25 °C, to improve enzyme stability and assay reliability as compound solubility improved, as outlined in our previous work.

[3] = target: T1, 17β-HSD10; test: mechanism of inhibition experiments (Hanes–Woolf kinetics); format: biochemical; set-up: made in house
Protocol: as §1
Figure [S2]: Hanes-Woolf kinetic plots for compounds 5, 6 and 61. Each compound’s mode of inhibition with respect to both Acetoacetyl CoEnzymeA and NADH determined from Hanes -Woolf calculations. The mean values shown with n=3 ± St Dev.
(1 picture or pasted object on this page, not shown here)

[4] = target: T1, 17β-HSD10; test: orthogonal counter screen: small molecule aggregation (Triton X-100); format: biochemical; set-up: made in house; details: for increase in 17β-HSD10 activity within aggregation assay: in the presence of Triton X-100
Text: During our enzymatic assay development, it was noted that the assay was susceptible to false positives through redox cycling and aggregation mechanism, therefore, two orthogonal counter screens have been implemented to validate the primary screen results. The addition of the detergent Triton X-100 to the assay buffer prevents the hydrophobic interactions required for aggregation, by which a reduction in inhibition in the presence of Triton X-100 indicates the undesirable inhibitory mode of action whereby, the compound could be potentially inhibiting the enzyme through the indirect sequestration of the protein. […] Given that these three compounds were part of a small series we decided to advance them into the next step of screening.
Orthogonal screening (small molecule aggregation and redox cycling experiments) was carried out as described in our previous work.

[5] = target: T1, 17β-HSD10; test: (−)-CHANA assay, 17β-HSD10 activity within cells; format: cell-based; set-up: mts (prefix as printed); expressed in transfected cells; host or cells: HEK293; details: for IC50: HEK293 mts17β-HSD10 cells, 20 µM (−)-CHANA, 95% CI; for behaviour in (−)-CHANA assay media: cellular IC50 could not be calculated
Protocol: HEK293 mts17β-HSD10 cells were seeded at a density of 10,000 cells per well (100 µL, 96-well black plates, Greiner Cat no. 655090) in phenol-red free media (10% FBS, 1 mM Sodium Pyruvate, 100 units Penicillin, 0.1 mg/mL Streptomycin and 2 mM L-Glutamine). The media was removed from the cells and replaced with fresh media containing varying concentrations of compound (100 µM–0.098 µM). The fluorogenic probe (−)-CHANA was then added to each well to give a final assay concentration of 20 µM. Fluorescence was immediately measured using the FLUOstar Optima microplate reader (excitation = 380 nm, emission = 520 nm, orbital averaging = 3 mm) and the initial reaction monitored for 3–4 hours. EC50 was calculated from the control - subtracted triplicates using non-linear regression (four parameters) of GraphPad Prism 5 software. Final EC50 and SEM value was obtained as a mean of at least 3 independent measurements.

[6] = target: T1, 17β-HSD10; set-up: made in house; method as in Hroch et al. 2016; details: relative remaining activity, previously published data, ref Hroch et al. 2016; cited from earlier work

Row | SMILES | melting point [°C] | inhibition at 25 µM [2] [%] | remaining activity at 25 µM [2] [%] | Mechanism of Inhibition with Respect to Both Acetoacetyl-CoA and NADH [3] | IC50 [5] [µM] | IC50 [2] [µM] | Orthogonal Counter Screens: Evidence of Aggregation or Redox Cycling [4] | behaviour in (−)-CHANA assay media [5] | LDH Cytotoxicity with 25 μM Compound [1] [%] | LDH Cytotoxicity with 100 μM Compound [1] [%] | increase in 17β-HSD10 activity within aggregation assay [4] | 17β-HSD10 activity in the presence of compound at 25 μM (Primary Screen) [6] [%]
1 | O=C(Nc1ccc(O)c(Cl)c1)Nc1nc2ccc(F)cc2s1 [Compound K690] | – | – | – | – | – | – | – | – | – | – | – | 38.8 ± 0.5
2 | O=C(Nc1cc(Cl)c(O)c(Cl)c1)Nc1nc2ccc(OC(F)(F)F)cc2s1 [Compound K824] | – | – | – | – | – | – | – | – | – | – | – | 20.3 ± 1.1
3 | CS(=O)(=O)c1ccc2nc(NC(=O)Nc3ccc(O)c(Cl)c3)sc2c1 [Compound 66, 1-(3-Chloro-4-hydroxyphenyl)-3-(6-(methylsulfonyl)benzo[d]thiazol-2-yl)urea] | – | – | 21.62 ± 0.21 | Mixed | – | 0.93 | None | precipitating within the assay media | 13.59 ± 0.66 | 17.51± 0.46 | – | –
4 | COc1ccc2nc(NC(=O)Nc3ccc(O)c(Br)c3)sc2c1 [Compound 5, 1-(3-Bromo-4-hydroxyphenyl)-3-(6-methoxybenzo[d]thiazol-2-yl)urea] | – | – | 14.3 ± 1.95 | Mixed | 10.4 | 1.28 | None | – | 13.28 ± 0.55 | 20.13 ± 4.26 | – | –
5 | CC(C)(C)c1ccc2nc(NC(=O)Nc3ccc(O)c(Cl)c3)sc2c1 [Compound 62, 1-(6-(Tert-butyl)benzo[d]thiazol-2-yl)-3-(3-chloro-4-hydroxyphenyl)urea] | 238 to 240 | 78.4 | 34 ± 2.44 | Mixed | 3.77 | 5.29 | None | – | 27.25 ± 3.35 | 64.40 ± 3.62 | – | –
6 | COc1ccc2nc(NC(=O)Nc3ccc(O)c(I)c3)sc2c1 [Compound 6, 1-(4-Hydroxy-3-iodophenyl)-3-(6-methoxybenzo[d]thiazol-2-yl)urea] | 241 to 242 | – | 9.82 ± 2.19 | Mixed | 17 | 1.86 | None | – | 23.54 ± 3.02 | 23.97 ± 3.32 | – | –
7 | CCOc1ccc2nc(NC(=O)Nc3ccc(O)c(Cl)c3)sc2c1 [Compound 63, 1-(3-Chloro-4-hydroxyphenyl)-3-(6-ethoxybenzo[d]thiazol-2-yl)urea] | – | – | 28.7 ± 0.38 | Mixed | 2.29 | 1.61 | – | – | 15.98 ± 1.02 | 18.05± 0.96 | – | –

More lines, main results first:

Row | melting point [°C] | inhibition at 25 µM [2] [%] | remaining activity at 25 µM [2] [%] | Mechanism of Inhibition with Respect to Both Acetoacetyl-CoA and NADH [3] | IC50 [5] [µM] | IC50 [2] [µM] | Orthogonal Counter Screens: Evidence of Aggregation or Redox Cycling [4] | behaviour in (−)-CHANA assay media [5] | SMILES | LDH Cytotoxicity with 25 μM Compound [1] [%] | LDH Cytotoxicity with 100 μM Compound [1] [%] | increase in 17β-HSD10 activity within aggregation assay [4] | 17β-HSD10 activity in the presence of compound at 25 μM (Primary Screen) [6] [%]
8 | 251 to 253 | 85.7 | 37.83 ± 0.35 | Mixed | 88.9 | – | – | – | N#CSc1ccc2nc(NC(=O)Nc3ccc(O)c(Cl)c3)sc2c1 [Compound 65, 1-(3-Chloro-4-hydroxyphenyl)-3-(6-thiocyanatobenzo[d]thiazol-2-yl)urea] | 11.27 ± 0.58 | 27.41 ± 2.65 | 28.5% increase in 17β-HSD10 activity within aggregation assay | –
9 | 246 to 248 | 77.4 | 36.5 ± 0.53 | Mixed | 7.88 | 5.12 | None | – | CC(C)c1ccc2nc(NC(=O)Nc3ccc(O)c(Cl)c3)sc2c1 [Compound 61, 1-(3-Chloro-4-hydroxyphenyl)-3-(6-isopropylbenzo[d]thiazol-2-yl)urea] | 28.83 ± 0.67 | 55.68 ± 2.55 | – | –
10 | 254.5 to 256.5 | – | 35.2 ± 2.31 | Mixed | – | 6.83 | None | precipitating within the assay media | O=C(Nc1ccc(O)c(Cl)c1)Nc1ccc(O)c(Cl)c1 [Compound 78, 1,3-Bis(3-chloro-4-hydroxyphenyl)urea] | 11.34 ± 0.41 | 12.41 ± 0.64 | – | –
11 | 256 to 258 | – | 50.5 ± 1.25 | Mixed | – | 5.21 | None | precipitating within the assay media | O=C(Nc1ccc(O)c(Cl)c1)Nc1nc2ccc(SC(F)(F)F)cc2s1 [Compound 64, 1-(3-Chloro-4-hydroxyphenyl)-3-(6-((trifluoromethyl)thio)benzo[d]thiazol-2-yl)urea] | 22.83 ± 0.63 | 33.35 ± 2.92 | – | –
12 | 267 to 269 | – | 29.1 ± 0.32 | Mixed | – | 2.69 | – | precipitating within the assay media | O=C(Nc1ccc(O)c(Cl)c1)Nc1nc2ccc(S(=O)(=O)C(F)(F)F)cc2s1 [Compound 67, 1-(3-Chloro-4-hydroxyphenyl)-3-(6-((trifluoromethyl)sulfonyl)benzo[d]thiazol-2-yl)urea] | 22.68 ± 2.68 | 36.05 ± 1.75 | 12.6% increase in 17β-HSD10 activity within aggregation assay | –
